Reference: article PMC11011327 (International Journal of Molecular Sciences, 2024)
Read-outs that look alike come from different tables or passages of the source. Residues, ends and D or L forms follow the SMILES beside them. No end group written: not given here.

Columns and labels:
[1] = system: TNF-induced cytotoxicity, L929 cells; test: Inhibition of cytotoxic activity of TNF on L929 cells; assay type: cell-based; settings: TNF 1 nM, peptide 10 nM, n = 5, TNF preincubated with TNFR1 peptide / cells preincubated with TNFL; for apoptotic cytotoxic activity of TNF in the presence of peptide: 3 h; for necroptotic cytotoxic activity of TNF in the presence of peptide: 20 h
Procedure: (§1) Next, we investigated how this interaction affects the cytotoxic activity of TNFR1 ligands. […] Cell apoptosis is a fast process of several hours. During necroptosis, cell death processes take place after a few dozen hours. Taking into account this ability of TNFR1 to participate in the induction of alternative cytotoxic pathways that develop at different time intervals, cytotoxic activity was determined after 3 h and after 20 h (Figure 4). […] It can be assumed that the inhibition of the cytotoxic effect of the ligands is associated with the competition of a 12-membered peptide with the cell surface receptor on for binding to the ligands.

Tag7 = target: T1, Tag7 (Homo sapiens, UniProt O75594); test: Microscale thermophoresis, binding to fluorescent-labeled Tag7; settings: ratio to previously shown Kd of Tag7–sTNFR1 (42.2)
T1 construct: His tag (inferred from the pQE-31 vector only); made in house; host or cells: E. coli M15 (pREP4)
T1 sequence (O75594 22-196): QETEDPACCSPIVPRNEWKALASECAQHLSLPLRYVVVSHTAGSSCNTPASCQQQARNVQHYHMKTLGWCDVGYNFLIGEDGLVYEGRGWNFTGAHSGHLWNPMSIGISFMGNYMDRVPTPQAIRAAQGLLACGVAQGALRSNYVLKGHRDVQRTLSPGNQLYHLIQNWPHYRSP
Source text: The calculated Kd indicates a high affinity among the studied complexes (Table 1).
Graphs are represented as Fnorm [‰] against ligand concentration. Data represent three independent experiments and were fitted to a Kd binding model assuming a 1:1 binding stoichiometry.
Hsp70 and TNF-α were purified with Ni-NTA Agarose (Thermo Fisher Scientific, Waltham, MA, USA) in accordance with the manufacturer’s instructions.
The samples were transferred to glass capillaries (Monolith NT Capillaries) and analyzed by microscale thermophoresis on a Nano-Temperature Monolith NT 115 device (30% IR laser power). The signal quality was monitored using a NanoTemper Monolith device to detect possible autofluorescence of the ligand, aggregation or changes in the rate of photobleaching. The experiments were carried out in at least three repetitions and processed using affinity analysis software (MO Control v.1.6.1, NanoTemper Technologies GmbH, München, Germany).

[2] = system: Tag7–Hsp70-induced cytotoxicity, L929 cells; test: Inhibition of cytotoxic activity of Tag7–Hsp70 complex on L929 cells; assay type: cell-based; settings: Tag7–Hsp70 1 nM, peptide 10 nM, n = 5, complex preincubated with TNFR1 peptide / cells preincubated with TNFL; for apoptotic cytotoxic activity of Tag7–Hsp70 complex in the presence of peptide: 3 h; for necroptotic cytotoxic activity of Tag7–Hsp70 complex in the presence of peptide: 20 h
Procedure: as §1

[3] = system: tumor cells / cancer cells; settings: ref [33]; cited from earlier work
Source text: The amino acid sequence of Tag7 seemingly lacks a peptide fragment interacting with the second site of the receptor.

tumor = settings: ref [33]; cited from earlier work
Source text: Modifications of the TNF molecule are used to solve it.

L929 cells [4] = system: L929 cells
Procedure: (§2) The TNFR1 antibodies were added to the sum of TNFL and TNFS peptides prior to incubation (a). Cytotoxic activity of the sum of TNFL and TNFS peptides on L929 cells after 3 (b) and 20 (c) hours in the presence of caspase 3 and 8 inhibitors (5 μM) and necrostatin1 (5 μM) is shown. (d) Cytotoxic activity of the sum of TNFL and TNFs peptides on L929 cells after 20 h of incubation in the presence of calpains inhibitors (10 μM), cathepsins inhibitors (10 μM) and antioxidant (1 μM). n = 5 for each point, (* p-value < 0.05).
(§3) L929 cells were cultured in DMEM with 2 mm L-glutamine and 10% FCS (Invitrogen, Carlsbad, CA, USA). This cell line was obtained from the cell line collection of the N. N. Blokhin National Medical Research Center of Oncology of the Ministry of Health of Russia.
(§4) For cytotoxicity tests, target cells were cultured in 96-well plates (3 × 10^4 cells per well), and cytotoxic complexes were added (1 nM). Cytotoxicity was measured after 20 h of incubation by Cytotox 96 analysis kit (Promega, Madison, WI, USA) in accordance with the manufacturer’s protocol. […]

sTNFR1 = settings: read-out: Kd value for the Tag7–sTNFR1 complex; "Previously, we showed"; cited from earlier work
L929 cells [5] = test: Cytotoxic activity of TNF peptides on L929 cells; settings: 20 h, n = 5, Cytotox 96 kit
Procedure: as §2, §3, §4

Compound	apoptotic cytotoxic activity of TNF in the presence of peptide [1]	necroptotic cytotoxic activity of TNF in the presence of peptide [1]	Kd of Tag7–TNFR1 peptide complex compared with Kd of Tag7–sTNFR1 complex (Tag7)	apoptotic cytotoxic activity of Tag7–Hsp70 complex in the presence of peptide [2]	necroptotic cytotoxic activity of Tag7–Hsp70 complex in the presence of peptide [2]	killing of tumor cells [3]	inhibition of tumor growth / metastasis (tumor)	cytotoxic activity (L929 cells [4])	Kd (sTNFR1)	cytotoxic activity (L929 cells [5])
CC(C)C[C@H](NC(=O)[C@H](CS)NC(=O)[C@H](Cc1c[nH]cn1)NC(=O)[C@H](CCCNC(=N)N)NC(=O)[C@H](CC(C)C)NC(=O)[C@H](Cc1c[nH]cn1)NC(=O)[C@@H](N)CC(N)=O)C(=O)N[C@@H](CO)C(=O)N[C@@H](CS)C(=O)N[C@@H](CO)C(=O)N[C@@H](CCCCN)C(=O)N[C@@H](CS)C(=O)O [TNFR1 peptide] (H-NHLRHCLSCSKC-OH)	completely lose both apoptotic and necroptotic activity	completely lose both apoptotic and necroptotic activity	approximately 10 times lower	completely lose both apoptotic and necroptotic activity	completely lose both apoptotic and necroptotic activity	–	–	–	–	–
TNF peptide (aa. 150–170): TNF peptide (aa. 150–170), capable of killing tumor cells and inhibiting tumor growth (VLLTHTISRIAVSYQTKVNLL; UniProt P01375 150-170, looked up, fragment)	–	–	–	–	–	capable of killing tumor cells	inhibiting tumor growth	–	–	–
NPQAEGQLQWLNRRAN [TNFL peptide]	Both apoptosis (3 h) and necroptosis (20 h) were inhibited	Both apoptosis (3 h) and necroptosis (20 h) were inhibited	–	Both apoptosis (3 h) and necroptosis (20 h) were inhibited	Both apoptosis (3 h) and necroptosis (20 h) were inhibited	–	–	no cytotoxic effect	–	–
Tag7: recombinant human Tag7, innate immunity protein, TNFR1 ligand	–	–	–	–	–	–	–	–	0.0422 µM	–
YVLLTH [TNFS peptide]	does not inhibit apoptosis nor necroptosis	does not inhibit apoptosis nor necroptosis	–	does not inhibit apoptosis nor necroptosis	does not inhibit apoptosis nor necroptosis	–	–	–	–	no cytotoxic effect
